The record followed here is patent US6242445A, “Benzimidazole derivative” (Kureha Chemical Industry Co., Ltd., priority 1998, dated 2001).

In one data set the test system is ICR female mice. Nature of the data set: Acute toxicity (single oral administration). In kind it is in vivo. As for the experimental part: Acute toxicity was evaluated in this Example. As a compound to be examined, 2-ethoxy-1-[[4'-(2"-N,N-dimethylamino-ethoxycarbonyl)phenyl]methyl]-1H-benzimidazole-6-carboxylic acid morpholide (Compound No. 13) prepared in Example 6 was used.
Five-week-old ICR female mice (5 mice per group) were bredfor acclimation for a week. Then, Compound No. 13 was dissolved or suspended in 0.5% methylcellulose aqueous solution, and orally administered to the mice in a single dosage (500 mg/kg). […] Further, as to Compound No. 55, Compound No. 57, Compound No. 59, and Compound No. 65 prepared in Examples 26, 28, 31, and 23, respectively, acute toxicity was also evaluated.

The test system of data set [1] is kidney disease model rats. Nature of the data set: Action to lower blood pressure in kidney disease model rats. In kind it is in vivo, Sprague-Dawley female rats. To be noted: 20 mg/kg oral; for action of lowering the blood pressure: in comparison with the control group; for Blood pressure: systolic, tail cuff, average, two days after administration, control 210. As for the experimental part:
In this Example, an action to lower blood pressure was evaluated. That is, each of 2-ethoxy-1-[[4'- (2'-N,N-dimethylamino-ethoxycarbonyl) phenyl]methyl]-1H-benzimidazole-6-carboxylic acid morpholide (Compound No. 13) prepared in Example 6, 2-ethoxy-1-[[4'-(2"-morpholinoethoxycarbonyl)-phenyl]methyl]-1H-benzimidazole-6-carboxylic acid piperidinamide (Compound No. 57) prepared in Example 28, or the reference substance was forcibly orally administered to kidney disease model rats, and the action of lowering the blood pressure was observed. The kidney disease model rats were prepared by a ligature of branches of renal artery in accordance with a conventional method. Namely, the left hilum renalis of Sprague-Dawley female rats was exposed under anesthesia, and one of four secondary branches of the renal artery was left unligated, while the remaining three branches were ligated, respectively. After a week, the hilum renalis (artery, vein, and ureter) of the right kidney were further ligated to thereby prepare rats whose renal function was lowered to approximately 1/8 of the normal function. Each group consisted of eight rats. The drugs to be tested (20 mg/kg) were administered to each administering group, and only water was administered to a control group. Two days after the administration, the systolic blood pressure was measured by the tail cuff method using a blood pressure measuring apparatus (UR^5000; Ueda).

Another data set concerns SHR rats. Nature of the data set: Action on weight of heart in SHR rats. In kind it is in vivo. The conditions noted are these: 20 weeks; for Relative weight ratio / Heart weight / Blood pressure / Body weight: 20 mg/kg oral in drinking solution, average±standard deviation; for Relative weight ratio: control 0.338 ± 0.012; for Heart weight: control 1.430 ± 0.082; for Blood pressure: control 224 ± 49; for Body weight: control 423 ± 17; for heart weight based on hypercardia / lowering of blood pressure / myocardiopathy: 20 mg/kg. Here is the method: In this Example, an action on a weight of a heart was evaluated. More particularly, 21-week-old SHR rats were divided into a control group (8 rats) and a test group (7 rats). The rats in the test group were allowed to freely drink a solution prepared by dissolving 2-ethoxy-1-[[4'-(2"-N,N-dimethylamino-ethoxycarbonyl)phenyl]methyl]-1H-benzimidazole-6-carboxylic acid morpholide (Compound No. 13) prepared in Example 6 or 2-ethoxy-1-[[4'-(2'-morpholinoethoxycarbonyl)-phenyl]methyl]-1H-benzimidazole-6-carboxylic acid piperidinamide (Compound No. 57) prepared in Example 28 for 20 weeks (20 mg/kg). After the oral administration was finished, the heart was taken, and the weight of the heart was measured.

Regarding `CCOc1nc2ccc(C(=O)N3CCOCC3)cc2n1Cc1ccc(C(=O)OCCN(C)C)cc1` [Compound No. 13, 2-ethoxy-1-[[4'-(2"-N,N-dimethylaminoethoxycarbonyl)phenyl]methyl]-1H-benzimidazole-6-carboxylic acid morpholide], in the data set with ICR female mice (500 mg/kg single oral, deaths observed for 6 days), the “Number of deaths/number of survivals” value is 0/5. Moreover, in data set [1], the “action of lowering the blood pressure” value is listed as “an influence on the blood pressure was not substantially observed” and the Blood pressure stood at 208 mmHg. In the data set on SHR rats, the Relative weight ratio is reported as 0.328 ± 0.007%, the Heart weight turned out to be 1.392 ± 0.034 g, the Blood pressure worked out at 232 ± 12 mmHg and the Body weight worked out at 424 g. For the same compound, in the data set on SHR rats, the “heart weight based on hypercardia” value was “significantly reduced”, the “lowering of blood pressure” value was “without inducing a lowering of blood pressure” and the “myocardiopathy” value is “suppresses myocardiopathy”.
Turning to `CCOc1nc2ccc(C(=O)N3CCCCC3)cc2n1Cc1ccc(C(=O)OCCN2CCOCC2)cc1` [Compound No. 57, 2-ethoxy-1-[[4'-(2"-morpholinoethoxycarbonyl)phenyl]methyl]-1H-benzimidazole-6-carboxylic acid piperidinamide], the “Number of deaths/number of survivals” value in the data set on ICR female mice (mouse, in vivo) is recorded as 0/5. Besides, in data set [1], the “action of lowering the blood pressure” value is reported as “an influence on the blood pressure was not substantially observed” and the Blood pressure came out at 205 mmHg. In the data set on SHR rats, the Relative weight ratio was determined as 0.324 ± 0.012%, the Heart weight stood at 1.390 ± 0.077 g, the Blood pressure is reported as 207 ± 14 mmHg and the Body weight is 429 g. For the same compound, in the data set with SHR rats, the “heart weight based on hypercardia” value is given as “significantly reduced”, the “lowering of blood pressure” value is “without inducing a lowering of blood pressure” and the “myocardiopathy” value is “suppresses myocardiopathy”.
